Measurements: ChEMBL document CHEMBL5316293, “Novel Small-Molecule PD-L1 Inhibitor Induces PD-L1 Internalization and Optimizes the Immune Microenvironment” (J Med Chem, 2023)
Active and inactive are the calls of the source. The calls are words filed in the database; no cut-off is given here.

What was measured:
MC38-hPD-L1 [1] = experiment: (§1) Antitumor activity against humanized mouse MC38-hPD-L1 cells implanted in hPD-1 knockin C57BL/6 mouse assessed as increase in GzmB level at 10 to 25 mg/kg, ip administered for 12 days starting from day 7 post tumor implantation by flow cytometry analysis; format: functional, organism-based; conditions: dose 10-25 mg/kg, time 12.0 day
[2] = Toxicity in ICR mouse assessed as reduction in heart weight at 500 to 5000 mg/kg, po administered via gavage for 2 weeks; format: organism-based; conditions: in vivo, 336 h, dose 500-5000 mg/kg
[3] = target: Programmed cell death protein 1/Programmed cell death 1 ligand 1 (Homo sapiens, UniProt Q9NZQ7); experiment: Inhibition of europium-labeled PD-1/biotinylated PD-L1 interaction (unknown origin) preincubated for 15 mins with PD-L1 followed by PD-1 addition and measured after 90 mins by TR-FRET assay; format: protein-complex assay
Sequence of Programmed cell death protein 1/Programmed cell death 1 ligand 1 (Q15116 whole entry): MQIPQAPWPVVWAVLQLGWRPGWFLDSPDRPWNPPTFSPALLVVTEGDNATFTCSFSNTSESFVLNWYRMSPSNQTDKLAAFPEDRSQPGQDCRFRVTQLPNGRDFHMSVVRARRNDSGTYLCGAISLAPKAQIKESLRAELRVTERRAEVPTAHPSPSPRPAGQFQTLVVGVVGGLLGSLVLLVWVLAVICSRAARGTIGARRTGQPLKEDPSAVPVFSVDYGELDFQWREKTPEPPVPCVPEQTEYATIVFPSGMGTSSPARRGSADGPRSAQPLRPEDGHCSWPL
Sequence of Programmed cell death protein 1/Programmed cell death 1 ligand 1 (Q9NZQ7 whole entry): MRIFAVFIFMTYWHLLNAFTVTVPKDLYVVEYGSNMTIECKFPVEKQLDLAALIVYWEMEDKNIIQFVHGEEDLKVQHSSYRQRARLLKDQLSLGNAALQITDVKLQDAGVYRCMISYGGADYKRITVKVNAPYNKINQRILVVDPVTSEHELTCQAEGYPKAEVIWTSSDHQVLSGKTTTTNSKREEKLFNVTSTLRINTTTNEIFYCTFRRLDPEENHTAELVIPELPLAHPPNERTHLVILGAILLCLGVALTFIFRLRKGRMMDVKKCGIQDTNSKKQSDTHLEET

MC38-hPD-L1 [4] = experiment: Antitumor activity against humanized mouse MC38-hPD-L1 cells implanted in hPD-1 knockin C57BL/6 mouse assessed as reduction in M2 macrophages at 10 to 25 mg/kg, ip administered for 12 days starting from day 7 post tumor implantation by flow cytometry analysis; format: functional, organism-based; conditions: dose 10-25 mg/kg, time 12.0 day
[5] = Toxicity in ICR mouse assessed as body weight loss at 500 to 5000 mg/kg, po administered via gavage for 2 weeks; format: organism-based; conditions: in vivo, 336 h, dose 500-5000 mg/kg
[6] = Antitumor activity against humanized mouse LLC-hPD-L1 cells implanted in hPD-1 knockin C57BL/6 mouse assessed as tumor growth inhibition at 10 mg/kg, ip administered for 12 days starting from day 7 post tumor implantation and measured every 2 days relative to control; format: functional; conditions: LLC-hPD-L1, 288 h, time 12 day, read-out: TGI
MC38-hPD-L1 [7] = experiment: Antitumor activity against humanized mouse MC38-hPD-L1 cells implanted in hPD-1 knockin C57BL/6 mouse assessed as reduction in Treg cells at 10 to 25 mg/kg, ip administered for 12 days starting from day 7 post tumor implantation by flow cytometry analysis; format: functional, organism-based; conditions: dose 10-25 mg/kg, time 12.0 day
LLC-hPD-L1 [8] = experiment: Antitumor activity against humanized mouse LLC-hPD-L1 cells implanted in hPD-1 knockin C57BL/6 mouse assessed as increase in CD69-positive CD137-positive T cells at 10 to 25 mg/kg, ip administered for 12 days starting from day 7 post tumor implantation by flow cytometry analysis; format: functional, organism-based; conditions: dose 10-25 mg/kg, time 12.0 day
[9] = Cmax in ICR mouse at 5 mg/kg, iv; format: ADME, organism-based; set-up: dose 5 mg/kg, route iv; conditions: in vivo
[10] = Toxicity in ICR mouse assessed as reduction in lungs weight at 500 to 5000 mg/kg, po administered via gavage for 2 weeks; format: organism-based; conditions: in vivo, 336 h, dose 500-5000 mg/kg
[11] = target: Programmed cell death protein 1/Programmed cell death 1 ligand 1 (Homo sapiens) (UniProt Q15116+Q9NZQ7); experiment: Inhibition of PD-1/PD-L1 interaction in human NCI-H358 cells harboring high level PD-L1 expression assessed as increase in transcriptional-mediated bioluminescent signal preincubated with compound followed by washout and further cultured with Jurkat cells transfected with NFAT luciferase by bio-glo reagent based assay; format: cell-based; conditions: dose 50-200 nM
[12] = Toxicity in ICR mouse assessed as reduction in liver weight at 500 to 5000 mg/kg, po administered via gavage for 2 weeks; format: organism-based; conditions: in vivo, 336 h, dose 500-5000 mg/kg
[13] = AUC (0 to infinity) in ICR mouse at 5 mg/kg, iv; format: ADME, organism-based; set-up: dose 5 mg/kg, route iv; conditions: in vivo
NCI-H460 = experiment: Cytotoxicity against human NCI-H460 cells cocultured with human PBMC cells assessed as increase in clearance of tumor cells at 100 to 200 nM preincubated for 30 mins followed by NCI-H460 cells addition and further coincubated for 24 hrs with human PBMC cells by cell impedence assay; format: functional, cell-based; conditions: dose 100-200 nM, time 24.5 hrs
[14] = Toxicity in ICR mouse assessed as reduction in spleen weight at 500 to 5000 mg/kg, po administered via gavage for 2 weeks; format: organism-based; conditions: in vivo, 336 h, dose 500-5000 mg/kg
[15] = Antitumor activity against humanized mouse LLC-hPD-L1 cells implanted in hPD-1 knockin C57BL/6 mouse assessed as tumor growth inhibition at 25 mg/kg, ip administered for 12 days starting from day 7 post tumor implantation and measured every 2 days relative to control; format: functional; conditions: LLC-hPD-L1, 288 h, time 12 day, read-out: TGI
[16] = Toxicity in ICR mouse assessed as reduction in kidney weight at 500 to 5000 mg/kg, po administered via gavage for 2 weeks; format: organism-based; conditions: in vivo, 336 h, dose 500-5000 mg/kg
MC38-hPD-L1 [17] = experiment: as §1, with “tumor cell apoptosis by measuring increase in cleaved caspase-3” for “GzmB”, “immunohistochemistry” for “flow cytometry”; format: functional, organism-based; conditions: dose 10-25 mg/kg, time 12.0 day
LLC-hPD-L1 [18] = experiment: Antitumor activity against humanized mouse LLC-hPD-L1 cells implanted in hPD-1 knockin C57BL/6 mouse assessed as reduction in MDSC cells at 10 to 25 mg/kg, ip administered for 12 days starting from day 7 post tumor implantation by flow cytometry analysis; format: functional, organism-based; conditions: dose 10-25 mg/kg, time 12.0 day
[19] = Toxicity in ICR mouse assessed as acute side effects at 500 to 5000 mg/kg, po administered via gavage for 2 weeks; format: organism-based; conditions: in vivo, 336 h, dose 500-5000 mg/kg
MC38-hPD-L1 [20] = experiment: Antitumor activity against humanized mouse MC38-hPD-L1 cells implanted in hPD-1 knockin C57BL/6 mouse assessed as increase in CD8-positive T cells at 10 to 25 mg/kg, ip administered for 12 days starting from day 7 post tumor implantation by flow cytometry analysis; format: functional, organism-based; conditions: dose 10-25 mg/kg, time 12.0 day
A549 = experiment: Cytotoxicity against human A549 cells assessed as reduction in tumor proliferation at 10 to 20 uM incubated for 48 hrs by xCELLigence RTCA system analysis; format: functional, cell-based; conditions: dose 10-20 µM
MC38-hPD-L1 [21] = experiment: Antitumor activity against humanized mouse MC38-hPD-L1 cells implanted in hPD-1 knockin C57BL/6 mouse assessed as macrophage polarization into M1 phenotype at 25 mg/kg, ip administered for 12 days starting from day 7 post tumor implantation by flow cytometry analysis; format: functional, organism-based; conditions: time 12.0 day

With `COc1cc2c(cc1CN[C@@H](CO)C(=O)O)C(=O)N(c1cccc(-c3ccccc3)c1C)C2=O` the Activity (MC38-hPD-L1 [1]) was “Active”, the Activity [2] was “Non-Toxic” and the IC50 [3] was 6.1 nM. The Activity (MC38-hPD-L1 [4]) was “Active”, the Activity [5] was “Non-Toxic” and the inhibition in vivo at 10 mg/kg [6] was 57.2%. The Activity (MC38-hPD-L1 [7]) was “Active”, the Activity (LLC-hPD-L1 [8]) was “Active” and the Cmax [9] was 6290 ng/mL. For the same compound, the Activity [10] was “Non-Toxic”, the inhibition [11] was “Dose-Dependent Effect” and the Activity [12] was “Non-Toxic”. The AUC(0-inf) [13] was 3570 ng·h/mL, the Activity (NCI-H460) was “Active” and the Activity [14] was “Non-Toxic”. For the same compound, the inhibition in vivo at 25 mg/kg [15] was 81.4%, the Activity [16] was “Non-Toxic” and the Activity (MC38-hPD-L1 [17]) was “Active”. For the same compound, the Activity (LLC-hPD-L1 [18]) was “Active”, the Activity [19] was “Non-Toxic” and the Activity (MC38-hPD-L1 [20]) was “Active”. For the same compound, the Activity (A549) was “inactive” and the Activity (MC38-hPD-L1 [21]) was “Active”.
